Reference: ChEMBL document CHEMBL4038270, “Synthesis of heterocyclic ring-fused tricyclic diterpene analogs as novel inhibitors of RANKL-induced osteoclastogenesis and bone resorption” (Eur J Med Chem, 2017)
Calls of active or inactive are those of the source. The calls are words filed in the database; no cut-off is given here.

Legend:
[1] = Inhibition of RANKL-induced C57BL/6 mouse bone marrow monocytes differentiation into osteoclasts at 0.1 uM after 6 days in presence of M-CSF by tartrate-resistant acid phosphatase staining based assay relative to control; assay type: functional; conditions: C57BL/6, Bone marrow monocyte, 144 h
Bone marrow monocyte [2] = test: Inhibition of RANKL-induced NFATc1 mRNA expression in C57BL/6 mouse bone marrow monocytes at 10 uM in presence of M-CSF by SYBR green-dye based qRT-PCR analysis; assay type: functional, cell-based; conditions: TDE = time-dependent effect
Bone marrow monocyte [3] = test: Inhibition of RANKL-induced TRAP mRNA expression in C57BL/6 mouse bone marrow monocytes at 10 uM in presence of M-CSF by SYBR green-dye based qRT-PCR analysis; assay type: functional, cell-based; conditions: TDE = time-dependent effect
Bone marrow monocyte [4] = test: Inhibition of RANKL-induced C-src mRNA expression in C57BL/6 mouse bone marrow monocytes at 10 uM in presence of M-CSF by SYBR green-dye based qRT-PCR analysis; assay type: functional, cell-based; conditions: TDE = time-dependent effect
Bone marrow monocyte [5] = test: Inhibition of RANKL-induced cathepsin K mRNA expression in C57BL/6 mouse bone marrow monocytes at 10 uM in presence of M-CSF by SYBR green-dye based qRT-PCR analysis; assay type: functional, cell-based; conditions: TDE = time-dependent effect
Bone marrow monocyte [6] = test: Inhibition of RANKL-induced CTR mRNA expression in C57BL/6 mouse bone marrow monocytes at 10 uM in presence of M-CSF by SYBR green-dye based qRT-PCR analysis; assay type: functional, cell-based; conditions: TDE = time-dependent effect
Bone marrow monocyte [7] = test: Inhibition of RANKL-induced CTR mRNA expression in C57BL/6 mouse bone marrow monocytes measured after 5 days in presence of M-CSF by SYBR green-dye based qRT-PCR analysis; assay type: functional, cell-based
Bone marrow monocyte [8] = test: Inhibition of RANKL-induced C-src mRNA expression in C57BL/6 mouse bone marrow monocytes measured after 5 days in presence of M-CSF by SYBR green-dye based qRT-PCR analysis; assay type: functional, cell-based
Bone marrow monocyte [9] = test: Inhibition of RANKL-induced cathepsin K mRNA expression in C57BL/6 mouse bone marrow monocytes measured after 5 days in presence of M-CSF by SYBR green-dye based qRT-PCR analysis; assay type: functional, cell-based
Bone marrow monocyte [10] = test: Inhibition of RANKL-induced TRAP mRNA expression in C57BL/6 mouse bone marrow monocytes measured after 5 days in presence of M-CSF by SYBR green-dye based qRT-PCR analysis; assay type: functional, cell-based
Bone marrow monocyte [11] = test: Inhibition of RANKL-induced NFATc1 mRNA expression in C57BL/6 mouse bone marrow monocytes measured after 5 days in presence of M-CSF by SYBR green-dye based qRT-PCR analysis; assay type: functional, cell-based
[12] = Inhibition of RANKL-induced C57BL/6 mouse bone marrow monocytes differentiation into osteoclasts at 2 uM after 6 days in presence of M-CSF by tartrate-resistant acid phosphatase staining based assay relative to control; assay type: functional; conditions: C57BL/6, Bone marrow monocyte, 144 h
[13] = Inhibition of RANKL-induced C57BL/6 mouse bone marrow monocytes differentiation into osteoclasts at 0.5 uM after 6 days in presence of M-CSF by tartrate-resistant acid phosphatase staining based assay relative to control; assay type: functional; conditions: C57BL/6, Bone marrow monocyte, 144 h
[14] = (§1) Inhibition of RANKL-induced C57BL/6 mouse bone marrow monocytes differentiation into osteoclasts after 6 days in presence of M-CSF by tartrate-resistant acid phosphatase staining based assay; assay type: functional, cell-based; conditions: C57BL/6, Bone marrow monocyte, 144 h
Bone marrow monocyte [15] = test: as §1; assay type: functional, cell-based
[16] = Potency index, ratio of maslinic acid IC50 to compound IC50 for RANKL-induced C57BL/6 mouse bone marrow monocytes differentiation into osteoclasts; assay type: functional, Bone marrow monocyte
[17] = Cytotoxicity against C57BL/6 mouse bone marrow monocytes assessed as reduction in cell viability at 2 uM after 72 hrs in presence of M-CSF by MTS assay; assay type: cell-based; conditions: bone marrow monocyte
[18] = Cytotoxicity against C57BL/6 mouse bone marrow monocytes assessed as reduction in cell viability at 20 uM after 72 hrs in presence of M-CSF by MTS assay; assay type: cell-based; conditions: bone marrow monocyte
[19] = Cytotoxicity against C57BL/6 mouse bone marrow monocytes assessed as reduction in cell viability after 72 hrs in presence of M-CSF by MTS assay; assay type: cell-based; conditions: C57BL/6, Bone marrow monocyte
[20] = Selectivity index, ratio of IC50 for C57BL/6 mouse bone marrow monocytes to IC50 for RANKL-induced C57BL/6 mouse bone marrow monocytes differentiation into osteoclasts; set-up: species or system Bone marrow monocyte
[21] = Effect on osteblast differentiation in mouse Mesenchymal stem cells at 2 to 10 uM measured after 7 days in presence of dexamethasone/b-glycerophosphate/Vitamin C by ALP staining assay; assay type: cell-based; conditions: mesenchymal stem cell, 168 h
Mus musculus [22] = test: Toxicity in ovariectomized C57BL/6 mouse assessed as effect on body weight at 5 to 20 mg/kg, ip administered for 60 days measured every 7 days during compound dosing; assay type: organism-based; conditions: in vivo
Mus musculus [23] = test: Protection against ovariectomized-induced osteoporosis in C57BL/6 mouse assessed as increase in bone mineral density of femur at 20 mg/kg, ip administered for 60 days by micro computed tomography; assay type: functional, organism-based
Mus musculus [24] = test: Protection against ovariectomized-induced osteoporosis in C57BL/6 mouse assessed as increase in ratio of bone volume to tissue volume of femur at 20 mg/kg, ip administered for 60 days by micro computed tomography; assay type: functional, organism-based
Mus musculus [25] = test: Protection against ovariectomized-induced osteoporosis in C57BL/6 mouse assessed as increase in trabecular number of femur at 20 mg/kg, ip administered for 60 days by micro computed tomography; assay type: functional, organism-based
Mus musculus [26] = test: Protection against ovariectomized-induced osteoporosis in C57BL/6 mouse assessed as increase in trabecular thickness of femur at 20 mg/kg, ip administered for 60 days by micro computed tomography; assay type: functional, organism-based
Mus musculus [27] = test: Protection against ovariectomized-induced osteoporosis in C57BL/6 mouse assessed as reduction in trabecular separation of femur at 20 mg/kg, ip administered for 60 days by micro computed tomography; assay type: functional, organism-based
Mus musculus [28] = test: Protection against ovariectomized-induced osteoporosis in C57BL/6 mouse assessed as reduction in femur structure model index at 20 mg/kg, ip administered for 60 days by micro computed tomography; assay type: functional, organism-based
Mus musculus [29] = test: Inhibition of ovariectomized-induced osteoclast activity in C57BL/6 mouse femur at 20 mg/kg, ip administered for 60 days by tartrate-resistant acid phosphatase staining method; assay type: functional, organism-based
Mus musculus [30] = test: Inhibition of ovariectomized-induced osteoclast activity in C57BL/6 mouse femur at 5 mg/kg, ip administered for 60 days by tartrate-resistant acid phosphatase staining; assay type: functional, organism-based
Mus musculus [31] = test: Anti-osteoporotic activity in ovariectomized-induced osteoporosis in C57BL/6 mouse assessed as increase in bone strength at 20 mg/kg, ip administered for 60 days by three point bending test; assay type: functional, organism-based
Mus musculus [32] = species on record: Mus musculus; test: Inhibition of RANKL-induced IKK mediated IkappaBalpha degradation in mouse […] cells at 10 uM pretreated for 4 hrs followed by RANKL stimulation measured for 60 mins by Western blot method; assay type: cell-based
Mus musculus [33] = species on record: Mus musculus; test: Inhibition of RANKL-induced IKK-mediated NF-kappa-B p65 phosphorylation in mouse […] cells at 10 uM pretreated for 4 hrs followed by RANKL stimulation measured for 60 mins by Western blot method; assay type: cell-based
Mus musculus [34] = species on record: Mus musculus; test: Inhibition of RANKL-induced ERK phosphorylation in mouse […] cells at 10 uM pretreated for 4 hrs followed by RANKL stimulation measured for 60 mins by Western blot method; assay type: cell-based
[35] = molecular target: MAP kinase p38 (Mus musculus) (UniProt P47811+O08911+Q9WUI1+Q9Z1B7); test: Inhibition of RANKL-induced p38 phosphorylation in mouse […] cells at 10 uM pretreated for 4 hrs followed by RANKL stimulation measured for 60 mins by Western blot method; assay type: cell-based
Mus musculus [36] = species on record: Mus musculus; test: Inhibition of RANKL-induced JNK phosphorylation in mouse […] cells at 10 uM pretreated for 4 hrs followed by RANKL stimulation measured for 60 mins by Western blot method; assay type: cell-based

CNC(=O)c1cc2c(cc1OC)[C@@]1(C)Cc3nc(C)oc3C(C)(C)[C@@H]1CC2
inhibition at 0.1 µM [1]: 72.3%
inhibition (Bone marrow monocyte [2]): Tde
inhibition (Bone marrow monocyte [3]): Tde
inhibition (Bone marrow monocyte [4]): Tde
inhibition (Bone marrow monocyte [5]): Tde
inhibition (Bone marrow monocyte [6]): Tde
inhibition (Bone marrow monocyte [7]): Dose-dependent effect
inhibition (Bone marrow monocyte [8]): Dose-dependent effect
inhibition (Bone marrow monocyte [9]): Dose-dependent effect
inhibition (Bone marrow monocyte [10]): Dose-dependent effect
inhibition (Bone marrow monocyte [11]): Dose-dependent effect
inhibition at 2 µM [12]: 100%
inhibition at 0.5 µM [13]: 92.7%
IC50 [14]: 0.04 µM
inhibition (Bone marrow monocyte [15]): Dose-dependent effect
Ratio IC50 [16]: 16
Activity [17]: Non-Toxic
Activity [18]: Toxic
IC50 [19]: 88.3 µM
Ratio IC50 [20]: 2208
Activity [21]: Non-Toxic
Activity (Mus musculus [22]): Non-Toxic
Activity (Mus musculus [23]): Active
Activity (Mus musculus [24]): Active
Activity (Mus musculus [25]): Active
Activity (Mus musculus [26]): Active
Activity (Mus musculus [27]): Active
Activity (Mus musculus [28]): Active
inhibition (Mus musculus [29]): Active
inhibition (Mus musculus [30]): inactive
Activity (Mus musculus [31]): Active
inhibition (Mus musculus [32]): Active
inhibition (Mus musculus [33]): Active
inhibition (Mus musculus [34]): Active
inhibition [35]: Active
inhibition (Mus musculus [36]): Active
